Laboratory results published in ChEMBL document CHEMBL5252571, “Substitution to hydrophobic linker and formation of host-guest complex enhanced the effect of synthetic transcription factor made of pyrrole-imidazole polyamide” (Bioorg Med Chem, 2023).
Active and inactive are the calls of the source. The rule behind the calls is not given here.

Columns and labels:
GM15850 [1] = test: Induction of FRDA expression in human GM15850 cells derived from Friedreich's ataxia patient assessed as increase in FXN transcription incubated for 24 hrs by RT-PCR analysis; type: functional, cell-based
GM15850 [2] = test: Induction of FRDA expression in human GM15850 cells derived from Friedreich's ataxia patient assessed as increase in FXN transcription at 100 to 300 nM incubated for 24 hrs by RT-PCR analysis; type: functional, cell-based; details: dose 100-300 nM
GM15850 [3] = test: Induction of FRDA expression in human GM15850 cells derived from Friedreich's ataxia patient assessed as increase in FXN transcription at >300 nM incubated for 24 hrs by RT-PCR analysis; type: functional, cell-based
GM15850 [4] = test: Cytotoxicity against human GM15850 cells derived from Friedreich's ataxia patient assessed as decrease in cell viability at >300 nM incubated for 48 hrs by cell count reagent SF based colorimetric assay; type: toxicity; details: gm15850, 48 h, 0.3 µM
[5] = Aqueous solubility of compound incubated for 20 mins by HPLC analysis; type: physicochemical; details: buffer
GM15850 [6] = test: Protective activity against human GM15850 cells derived from Friedreich's ataxia patient assessed as decrease in cytotoxicity at 1 uM incubated for 48 hrs in presence of 0.2 to 10 mM 2-hydroxypropyl-beta-cyclodextrin adjuvant by cell count reagent SF based colorimetric assay; type: functional
GM15850 [7] = test: Protective activity against human GM15850 cells derived from Friedreich's ataxia patient assessed as decrease in cytotoxicity at 1 uM incubated for 48 hrs in presence of 1 mM 2-hydroxypropyl-beta-cyclodextrin adjuvant by cell count reagent SF based colorimetric assay; type: functional
GM15850 [8] = test: Induction of FRDA expression in human GM15850 cells derived from Friedreich's ataxia patient assessed as increase in FXN transcription at 100 to 1000 nM incubated for 24 hrs in presence of 1.0 to 2.5 mM 2-hydroxypropyl-beta-cyclodextrin adjuvant by RT-PCR analysis; type: functional, cell-based; details: dose 100-1000 nM

Q: Which Activity (GM15850 [1]) does the source give for Cc1sc2c(c1C)C(c1ccc(Cl)cc1)=N[C@@H](CC(=O)NCCOCCOCCOCCOCCOCCOCCC(=O)NCCCCCCCNC(=O)CCNC(=O)c1nc(NC(=O)CCNC(=O)c3cc(NC(=O)c4nc(NC(=O)CCNC(=O)c5cc(NC(=O)c6nc(NC(=O)CCCN(C)C)cn6C)cn5C)cn4C)cn3C)cn1C)c1nnc(C)n1-2 here?
A: inactive

Q: With Cc1sc2c(c1C)C(c1ccc(Cl)cc1)=N[C@@H](CC(=O)NCCOCCOCCOCCOCCOCCOCCC(=O)NCCCCCCCNC(=O)CCNC(=O)c1nc(NC(=O)CCNC(=O)c3cc(NC(=O)c4nc(NC(=O)CCNC(=O)c5cc(NC(=O)c6nccn6C)cn5C)cn4C)cn3C)cn1C)c1nnc(C)n1-2 as the molecule, how does the Activity (GM15850 [2]) read?
A: Active

Q: And the Activity (GM15850 [3])?
A: inactive

Q: And the Activity (GM15850 [4])?
A: Toxic

Q: What about the solubility [5] of the same molecule?
A: Soluble

Q: What about the Activity (GM15850 [6]) of the same molecule?
A: inactive

Q: What about the Activity (GM15850 [7]) of the same molecule?
A: Active

Q: And the Activity (GM15850 [8])?
A: inactive

Q: Which Activity (GM15850 [1]) does the source give for Cc1sc2c(c1C)C(c1ccc(Cl)cc1)=N[C@@H](CC(=O)NCCOCCOCCOCCOCCOCCOCCC(=O)NCCCN(C)CCCNC(=O)CCNC(=O)c1nc(NC(=O)CCNC(=O)c3cc(NC(=O)c4nc(NC(=O)CCNC(=O)c5cc(NC(=O)c6nccn6C)cn5C)cn4C)cn3C)cn1C)c1nnc(C)n1-2 here?
A: Active

Q: And the Activity (GM15850 [2])?
A: Active

Q: And the solubility [5]?
A: Soluble

Q: For Cc1sc2c(c1C)C(c1ccc(Cl)cc1)=N[C@@H](CC(=O)NCCOCCOCCOCCOCCOCCOCCC(=O)NCCCN(C)CCCNC(=O)CCNC(=O)c1nc(NC(=O)CCNC(=O)c3cc(NC(=O)c4nc(NC(=O)CCNC(=O)c5cc(NC(=O)c6nc(NC(=O)CCCN(C)C)cn6C)cn5C)cn4C)cn3C)cn1C)c1nnc(C)n1-2, which Activity (GM15850 [1]) is on record?
A: inactive
